Measurements reported in patent US20160291027A1, “METHODS FOR […] ABILITY OF A Z[…] COMPOUND TO TREAT CANCER” (Eisai R&D Management Co., Ltd., priority 2007, published 2016).

Tests used:
Format in all cases: cell-based
[1] = tested on: cell lines which carried a BRAF V600E mutation; assay: Cell growth assay (CellTiter-Glo or methylene blue) in solid cancer cell lines; conditions: 96 hours, 0.3-10000 nM
Experimental: In a separate experiment, Compounds 091 and 106 were tested in solid cancer cell lines from different tissue types (shown in FIG. 3B for 21 cell lines for compound 091 and 19 cell lines for compound 106). All cell lines were introduced into 96-well plates and grown in the absence or continuous presence of 0.3-10000 nM of either compound 091 or compound 106 for 96 hours. Cell growth was assessed using a CellTiter-Glo® Luminescent Cell Viability Assay (Promega) or a methylene blue assay. IC50 values were determined as the concentration of a substance which inhibits cell growth by 50% compared to untreated cell populations.

[2] = tested on: IL-6 secretion by LOX human melanoma cells; assay: IL-6 secretion by LOX melanoma cells (ELISA); conditions: 24 hours
Experimental: Compound 106 (5.0 mg) was weighed and dissolved in 100% anhydrous DMSO (dimethyl sulfoxide, Sigma-Aldrich®, St. Louis, Mo.) to produce a 10 mmol/L stock solution of 3.89 mg/mL. Aliquots of the 10 mmol/L stock solution were stored at −80° C. Then, on each day of an experiment, an aliquot of the stock solution was thawed and diluted 1:10 by adding RPMI-1640 culture medium to obtain a 1 mmol/L solution. Four serial 1:10 dilutions were made from 1 mmol/L working solution by adding 10% DMSO in RPMI-1640 culture medium to obtain 4 additional working solutions. Each of these working stock solutions was further diluted with culture media to obtain diluted working solutions ranging from 1 nmol/L to 10,000 nmol/L. Five mL of each of these diluted working solutions was added to each dish.
LOX human melanoma cells were originally obtained from the DCTD Tumor Repository (Frederick, Md.). The cells were grown in monolayer cultures in RPMI-1640 growth media containing 10% fetal bovine serum (FBS) at 37° C. in a 5% CO2 humidified incubator.
LOX human melanoma cells were plated at 1×10^6 cells into 100 mm dishes. After 48 hours, cells were washed three times with phosphate buffered saline (PBS) and were cultured with RPMI-1640 medium containing 0.1% FBS for another 24 hours. After removing the cell culture medium, fresh RPMI-1640 medium containing Compound 106 (1, 10, 100, 1000, or 10,000 nmol/L) was added to each culture dish and incubated for 24 hours (see Table 5). The control received 0.1% DMSO in RPMI-1640 culture medium alone to measure spontaneous secretion of IL-6 and IL-8. Three separate experiments were performed in duplicate to calculate the mean±SEM.
After a 24 hour incubation with Compound 106 or 0.1% DMSO, 5 mL of cell culture supernatant was collected. Any particulate material was removed by centrifugation. All samples were stored in the −80° C. freezer until analysis. Human IL-6 or IL-8 was determined using an ELISA kit (Human IL-8 ELISA Set, Catalog No. 555244, BD Biosciences, San Diego, Calif. and Human IL-6 ELISA Set, Catalog No. 555220, BD Biosciences, San Diego, Calif.) with the assay procedure provided by the kits. Absorbance was read on a VERSAMAX™ (Molecular Devices, now part of MDS Analytical Technologies, Sunnyvale Calif.).
After removing the cell culture supernatant, 1.0 mL of trypsin was added to the cells for 3 minutes, and then 4 mL of media containing 10% FBS was added for cell counting. Cells were counted using a hematocytometer (Bright Line Counting Chamber, Hausser Scientific, Horsham, Pa.) with a depth of 0.1 mm. The total number of cells was calculated as follows:
Total number of cells in 5 mL=C×10^4/mL×5 mL(C: actual cell count in 1 mm^2)
The level of IL-6 or IL-8 was determined as ng/1×10^6 cells. Inhibition of IL-6 or IL-8 secretion by Compound 106 was expressed as percent of control using the formula below:
Percent of control=(value of treatment−mean value of blank)/(value of control−mean value of blank)×100
The software, Graphpad Prism® (ver. 4, San Diego, Calif.) was used for calculation of mean IC50 values.

[3] = tested on: BRAF mutant (V600E) melanoma cell lines; assay: Cell growth assay in BRAF mutant (V600E) melanoma cell lines; conditions: continuous presence of compound
Experimental: In a separate experiment, Compound 106 was tested in a panel of BRAF mutant (V600E) melanoma cell lines. (This set of cell lines represents 17 additional cell lines relative to FIG. 3C.) The melanoma cell lines were introduced into 96-well plates and grown in the absence or continuous presence of compound 106. IC50 values were determined as the concentration of a substance which inhibits cell growth by 50% compared to untreated cell populations.

**Q.** What does the source list for CCNc1cc(O)c2c(c1)/C=C/C[C@H](O)[C@H](O)C(=O)/C=C\[C@@H](C)[C@H](C)OC2=O [Compound 106]?
**A.** Sensitivity of BRAF V600E cell lines (concentration range) [1]: low-nM or sub-μM concentration range; IL-6 (ng/million cells) Mean ([2]; 1 nmol/L): 9.9 ng/million cells; IL-6 (pg/million cells) Experiment 1 ([2]; 1 nmol/L): 5890 pg/million cells; IL-6 (pg/million cells) Experiment 2 ([2]; 1 nmol/L): 13741 pg/million cells; IL-6 (pg/million cells) Experiment 3 ([2]; 1 nmol/L): 10140 pg/million cells; Protein level of IL-6, Percent (%) of control Experiment 1 ([2]; 1 nmol/L): 46.1%; Protein level of IL-6, Percent (%) of control Experiment 2 ([2]; 1 nmol/L): 53.6%; Protein level of IL-6, Percent (%) of control Experiment 3 ([2]; 1 nmol/L): 115.0%; IL-6 (ng/million cells) Mean ([2]; 10 nmol/L): 8.7 ng/million cells; IL-6 (pg/million cells) Experiment 1 ([2]; 10 nmol/L): 3253 pg/million cells; IL-6 (pg/million cells) Experiment 2 ([2]; 10 nmol/L): 12105 pg/million cells; IL-6 (pg/million cells) Experiment 3 ([2]; 10 nmol/L): 10745 pg/million cells; Protein level of IL-6, Percent (%) of control Experiment 1 ([2]; 10 nmol/L): 21.5%; Protein level of IL-6, Percent (%) of control Experiment 2 ([2]; 10 nmol/L): 47.1%; Protein level of IL-6, Percent (%) of control Experiment 3 ([2]; 10 nmol/L): 121.3%; IL-6 (ng/million cells) Mean ([2]; 100 nmol/L): 0.5 ng/million cells; IL-6 (pg/million cells) Experiment 1 ([2]; 100 nmol/L): 347 pg/million cells; IL-6 (pg/million cells) Experiment 2 ([2]; 100 nmol/L): 643 pg/million cells; IL-6 (pg/million cells) Experiment 3 ([2]; 100 nmol/L): 485 pg/million cells; Protein level of IL-6, Percent (%) of control Experiment 1 ([2]; 100 nmol/L): 2.9%; Protein level of IL-6, Percent (%) of control Experiment 2 ([2]; 100 nmol/L): 2.5%; Protein level of IL-6, Percent (%) of control Experiment 3 ([2]; 100 nmol/L): 5.5%; IL-6 (ng/million cells) Mean ([2]; 1,000 nmol/L): 0.6 ng/million cells; IL-6 (pg/million cells) Experiment 1 ([2]; 1,000 nmol/L): 547 pg/million cells; IL-6 (pg/million cells) Experiment 2 ([2]; 1,000 nmol/L): 986 pg/million cells; IL-6 (pg/million cells) Experiment 3 ([2]; 1,000 nmol/L): 257 pg/million cells; Protein level of IL-6, Percent (%) of control Experiment 1 ([2]; 1,000 nmol/L): 4.6%; Protein level of IL-6, Percent (%) of control Experiment 2 ([2]; 1,000 nmol/L): 3.8%; Protein level of IL-6, Percent (%) of control Experiment 3 ([2]; 1,000 nmol/L): 2.9%; IL-6 (ng/million cells) Mean ([2]; 10,000 nmol/L): 0.2 ng/million cells; IL-6 (pg/million cells) Experiment 1 ([2]; 10,000 nmol/L): 165 pg/million cells; IL-6 (pg/million cells) Experiment 2 ([2]; 10,000 nmol/L): 337 pg/million cells; IL-6 (pg/million cells) Experiment 3 ([2]; 10,000 nmol/L): 132 pg/million cells; Protein level of IL-6, Percent (%) of control Experiment 1 ([2]; 10,000 nmol/L): 1.3%; Protein level of IL-6, Percent (%) of control Experiment 2 ([2]; 10,000 nmol/L): 1.3%; Protein level of IL-6, Percent (%) of control Experiment 3 ([2]; 10,000 nmol/L): 1.6%; activity at 0.001 µM ([2]; Homo sapiens, LOX, 1 nmol/L, read-out: Protein level of IL-6, Mean % of control): 72.2%; activity at 0.01 µM ([2]; Homo sapiens, LOX, 10 nmol/L, read-out: Protein level of IL-6, Mean % of control): 65%; activity at 0.1 µM ([2]; Homo sapiens, LOX, 100 nmol/L, read-out: Protein level of IL-6, Mean % of control): 3.6%; activity at 1 µM ([2]; Homo sapiens, LOX, 1,000 nmol/L, read-out: Protein level of IL-6, Mean % of control): 3.8%; activity at 10 µM ([2]; Homo sapiens, LOX, 10,000 nmol/L, read-out: Protein level of IL-6, Mean % of control): 1.4%; IC50 ([2]; Homo sapiens, LOX melanoma cell line, read-out: mean calculated IC50, IL-6 protein level): 21.8 nM; Sensitivity of cell lines with BRAF mutation and wild-type PTEN status [3]: very sensitive
